In US20230085307A1, “PYRIDAZINONE COMPOUND AND HERBICIDE” (NISSAN CHEMICAL CORPORATION, priority 2019, published 2023):

Assays:
barnyard grass [1] = assay: Test Example 5: herbicidal effect by foliage application, plastic box (Table 20, symbol H); type: in vivo, barnyard grass (Echinochloa crus-galli); conditions: foliage application, three weeks after application
Outline: (§1)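 Plants sown in sterilized diluvial soil and grown 14 days in a greenhouse at 25° C to 30° C, then sprayed on the foliage with the compound's emulsion diluted in water to a predetermined herbicide amount. Injury to weeds and crops scored three weeks after application on a visual rating scale.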

persian speedwell = assay: Test Example 5: herbicidal effect by foliage application, plastic box (Table 20, symbol R); type: in vivo, Persian speedwell (Veronica persica); conditions: foliage application, three weeks after application
Outline: as §1

Chinese sprangletop = assay: Test Example 3: herbicidal effect by foliage application, Wagner pot (Table 18, symbol D); type: in vivo, chinese sprangletop (Leptochloa chinensis)
Outline: (§2)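 Plants were sown in alluvial soil held under 0.1–0.5 cm standing water and grown 14 days in a greenhouse at 25–30 °C. An emulsifiable formulation, water-diluted to the set dose, was then sprayed onto the foliage, and effects were scored three weeks later using previously defined criteria.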

green foxtail = assay: Test Example 5: herbicidal effect by foliage application, plastic box (Table 20, symbol G); type: in vivo, green foxtail (Setaria viridis); conditions: foliage application, three weeks after application
Outline: as §1

false cleavers = assay: Test Example 5: herbicidal effect by foliage application, plastic box (Table 20, symbol Q); type: in vivo, false cleavers (Galium spurium); conditions: foliage application, three weeks after application
Outline: as §1

lambsquarters = assay: Test Example 5: herbicidal effect by foliage application, plastic box (Table 20, symbol O); type: in vivo, lambsquarters (Chenopodium album); conditions: foliage application, three weeks after application
Outline: as §1

redroot pigweed = assay: Test Example 5: herbicidal effect by foliage application, plastic box (Table 20, symbol N); type: in vivo, redroot pigweed (Amaranthus retroflexus); conditions: foliage application, three weeks after application
Outline: as §1

rice flat sedge = assay: Test Example 3: herbicidal effect by foliage application, Wagner pot (Table 18, symbol E); type: in vivo, rice flat sedge (Cyperus iria)
Outline: as §2

chickweed = assay: Test Example 5: herbicidal effect by foliage application, plastic box (Table 20, symbol P); type: in vivo, common chickweed (Stellaria media); conditions: foliage application, three weeks after application
Outline: as §1

southern crabgrass = assay: Test Example 5: herbicidal effect by foliage application, plastic box (Table 20, symbol F); type: in vivo, southern crabgrass (Digitaria ciliaris); conditions: foliage application, three weeks after application
Outline: as §1

Italian ryegrass = assay: Test Example 5: herbicidal effect by foliage application, plastic box (Table 20, symbol K); type: in vivo, Italian ryegrass (Lolium multiflorum); conditions: foliage application, three weeks after application
Outline: as §1

wild oat = assay: Test Example 5: herbicidal effect by foliage application, plastic box (Table 20, symbol I); type: in vivo, wild oat (Avena fatua); conditions: foliage application, three weeks after application
Outline: as §1

blackgrass = assay: Test Example 5: herbicidal effect by foliage application, plastic box (Table 20, symbol J); type: in vivo, blackgrass (Alopecurus myosuroides); conditions: foliage application, three weeks after application
Outline: as §1

barnyard grass [2] = assay: Test Example 3: herbicidal effect by foliage application, Wagner pot (Table 18, symbol H); type: in vivo, barnyard grass (Echinochloa crus-galli)
Outline: as §2

velvetleaf = assay: Test Example 5: herbicidal effect by foliage application, plastic box (Table 20, symbol M); type: in vivo, velvetleaf (Abutilon theophrasti); conditions: foliage application, three weeks after application
Outline: as §1

windgrass = assay: Test Example 5: herbicidal effect by foliage application, plastic box (Table 20, symbol L); type: in vivo, windgrass (Apera spica-venti); conditions: foliage application, three weeks after application
Outline: as §1

Compound: Cc1nn(C)c(=O)c(-c2c(-c3ccccc3O)sc3ccccc23)c1O [1-009]
- herbicidal effect grade, H: barnyard grass (barnyard grass [1]; 320 g/ha): 2 (Herbicidal rate of 20% or more and less than 40%)
- herbicidal effect grade, R: persian speedwell (persian speedwell; 320 g/ha): 4 (Herbicidal rate of 70% or more and less than 90%)
- herbicidal effect on D (Chinese sprangletop), rating 0-5 (Chinese sprangletop; 320 g/ha): 2 (Herbicidal rate of 20% or more and less than 40%)
- herbicidal effect grade, G: green foxtail (green foxtail; 320 g/ha): 3 (Herbicidal rate of 40% or more and less than 70%)
- herbicidal effect grade, Q: false cleavers (false cleavers; 320 g/ha): 0 (Herbicidal rate of 5% or less (almost no effect))
- herbicidal effect grade, O: lambsquarters (lambsquarters; 320 g/ha): 0 (Herbicidal rate of 5% or less (almost no effect))
- herbicidal effect grade, N: redroot pigweed (redroot pigweed; 320 g/ha): 0 (Herbicidal rate of 5% or less (almost no effect))
- herbicidal effect on E (rice flat sedge), rating 0-5 (rice flat sedge; 320 g/ha): 2 (Herbicidal rate of 20% or more and less than 40%)
- herbicidal effect grade, P: chickweed (chickweed; 320 g/ha): 4 (Herbicidal rate of 70% or more and less than 90%)
- herbicidal effect grade, F: southern crabgrass (southern crabgrass; 320 g/ha): 3 (Herbicidal rate of 40% or more and less than 70%)
- herbicidal effect grade, K: Italian ryegrass (Italian ryegrass; 320 g/ha): 0 (Herbicidal rate of 5% or less (almost no effect))
- herbicidal effect grade, I: wild oat (wild oat; 320 g/ha): 0 (Herbicidal rate of 5% or less (almost no effect))
- herbicidal effect grade, J: blackgrass (blackgrass; 320 g/ha): 0 (Herbicidal rate of 5% or less (almost no effect))
- herbicidal effect on H (barnyard grass), rating 0-5 (barnyard grass [2]; 320 g/ha): 3 (Herbicidal rate of 40% or more and less than 70%)
- herbicidal effect grade, M: velvetleaf (velvetleaf; 320 g/ha): 0 (Herbicidal rate of 5% or less (almost no effect))
- herbicidal effect grade, L: windgrass (windgrass; 320 g/ha): 0 (Herbicidal rate of 5% or less (almost no effect))

Compound: Cc1nn(C)c(=O)c(-c2c(-c3ccccc3Oc3ccccc3)sc3ccccc23)c1O [1-033]
- herbicidal effect grade, H: barnyard grass (barnyard grass [1]; 320 g/ha): 2 (Herbicidal rate of 20% or more and less than 40%)
- herbicidal effect grade, R: persian speedwell (persian speedwell; 320 g/ha): 3 (Herbicidal rate of 40% or more and less than 70%)
- herbicidal effect on D (Chinese sprangletop), rating 0-5 (Chinese sprangletop; 320 g/ha): 0 (Herbicidal rate of 5% or less (almost no effect))
- herbicidal effect grade, G: green foxtail (green foxtail; 320 g/ha): 0 (Herbicidal rate of 5% or less (almost no effect))
- herbicidal effect grade, Q: false cleavers (false cleavers; 320 g/ha): 4 (Herbicidal rate of 70% or more and less than 90%)
- herbicidal effect grade, O: lambsquarters (lambsquarters; 320 g/ha): 0 (Herbicidal rate of 5% or less (almost no effect))
- herbicidal effect grade, N: redroot pigweed (redroot pigweed; 320 g/ha): 0 (Herbicidal rate of 5% or less (almost no effect))
- herbicidal effect on E (rice flat sedge), rating 0-5 (rice flat sedge; 320 g/ha): 1 (Herbicidal rate of 5% or more and less than 20%)
- herbicidal effect grade, P: chickweed (chickweed; 320 g/ha): 1 (Herbicidal rate of 5% or more and less than 20%)
- herbicidal effect grade, F: southern crabgrass (southern crabgrass; 320 g/ha): 3 (Herbicidal rate of 40% or more and less than 70%)
- herbicidal effect grade, K: Italian ryegrass (Italian ryegrass; 320 g/ha): 0 (Herbicidal rate of 5% or less (almost no effect))
- herbicidal effect grade, I: wild oat (wild oat; 320 g/ha): 0 (Herbicidal rate of 5% or less (almost no effect))
- herbicidal effect grade, J: blackgrass (blackgrass; 320 g/ha): 0 (Herbicidal rate of 5% or less (almost no effect))
- herbicidal effect on H (barnyard grass), rating 0-5 (barnyard grass [2]; 320 g/ha): 1 (Herbicidal rate of 5% or more and less than 20%)
- herbicidal effect grade, M: velvetleaf (velvetleaf; 320 g/ha): 0 (Herbicidal rate of 5% or less (almost no effect))
- herbicidal effect grade, L: windgrass (windgrass; 320 g/ha): 0 (Herbicidal rate of 5% or less (almost no effect))

Compound: CCS(=O)(=O)c1ccccc1-c1sc2ccccc2c1-c1c(O)c(C)nn(C)c1=O [1-038]
- herbicidal effect grade, H: barnyard grass (barnyard grass [1]; 123 g/ha): 0 (Herbicidal rate of 5% or less (almost no effect))
- herbicidal effect grade, R: persian speedwell (persian speedwell; 123 g/ha): 0 (Herbicidal rate of 5% or less (almost no effect))
- herbicidal effect on D (Chinese sprangletop), rating 0-5 (Chinese sprangletop; 123 g/ha): 4 (Herbicidal rate of 70% or more and less than 90%)
- herbicidal effect grade, G: green foxtail (green foxtail; 123 g/ha): 0 (Herbicidal rate of 5% or less (almost no effect))
- herbicidal effect grade, Q: false cleavers (false cleavers; 123 g/ha): 3 (Herbicidal rate of 40% or more and less than 70%)
- herbicidal effect grade, O: lambsquarters (lambsquarters; 123 g/ha): 0 (Herbicidal rate of 5% or less (almost no effect))
- herbicidal effect grade, N: redroot pigweed (redroot pigweed; 123 g/ha): 0 (Herbicidal rate of 5% or less (almost no effect))
- herbicidal effect on E (rice flat sedge), rating 0-5 (rice flat sedge; 123 g/ha): 3 (Herbicidal rate of 40% or more and less than 70%)
- herbicidal effect grade, P: chickweed (chickweed; 123 g/ha): 5 (Herbicidal rate of 90% or more (almost completely withered))
- herbicidal effect grade, F: southern crabgrass (southern crabgrass; 123 g/ha): 0 (Herbicidal rate of 5% or less (almost no effect))
- herbicidal effect grade, K: Italian ryegrass (Italian ryegrass; 123 g/ha): 0 (Herbicidal rate of 5% or less (almost no effect))
- herbicidal effect grade, I: wild oat (wild oat; 123 g/ha): 0 (Herbicidal rate of 5% or less (almost no effect))
- herbicidal effect grade, J: blackgrass (blackgrass; 123 g/ha): 0 (Herbicidal rate of 5% or less (almost no effect))
- herbicidal effect on H (barnyard grass), rating 0-5 (barnyard grass [2]; 123 g/ha): 0 (Herbicidal rate of 5% or less (almost no effect))
- herbicidal effect grade, M: velvetleaf (velvetleaf; 123 g/ha): 0 (Herbicidal rate of 5% or less (almost no effect))
- herbicidal effect grade, L: windgrass (windgrass; 123 g/ha): 0 (Herbicidal rate of 5% or less (almost no effect))

Compound: Cc1nn(C)c(=O)c(-c2c(-c3ccc(N(C)C)cc3)sc3ccccc23)c1O [1-039]
- herbicidal effect grade, H: barnyard grass (barnyard grass [1]; 295 g/ha): 0 (Herbicidal rate of 5% or less (almost no effect))
- herbicidal effect grade, R: persian speedwell (persian speedwell; 295 g/ha): 5 (Herbicidal rate of 90% or more (almost completely withered))
- herbicidal effect on D (Chinese sprangletop), rating 0-5 (Chinese sprangletop; 295 g/ha): 1 (Herbicidal rate of 5% or more and less than 20%)
- herbicidal effect grade, G: green foxtail (green foxtail; 295 g/ha): 4 (Herbicidal rate of 70% or more and less than 90%)
- herbicidal effect grade, Q: false cleavers (false cleavers; 295 g/ha): 0 (Herbicidal rate of 5% or less (almost no effect))
- herbicidal effect grade, O: lambsquarters (lambsquarters; 295 g/ha): 4 (Herbicidal rate of 70% or more and less than 90%)
- herbicidal effect grade, N: redroot pigweed (redroot pigweed; 295 g/ha): 5 (Herbicidal rate of 90% or more (almost completely withered))
- herbicidal effect on E (rice flat sedge), rating 0-5 (rice flat sedge; 295 g/ha): 3 (Herbicidal rate of 40% or more and less than 70%)
- herbicidal effect grade, P: chickweed (chickweed; 295 g/ha): 5 (Herbicidal rate of 90% or more (almost completely withered))
- herbicidal effect grade, F: southern crabgrass (southern crabgrass; 295 g/ha): 3 (Herbicidal rate of 40% or more and less than 70%)
- herbicidal effect grade, K: Italian ryegrass (Italian ryegrass; 295 g/ha): 2 (Herbicidal rate of 20% or more and less than 40%)
- herbicidal effect grade, I: wild oat (wild oat; 295 g/ha): 0 (Herbicidal rate of 5% or less (almost no effect))
- herbicidal effect grade, J: blackgrass (blackgrass; 295 g/ha): 1 (Herbicidal rate of 5% or more and less than 20%)
- herbicidal effect on H (barnyard grass), rating 0-5 (barnyard grass [2]; 295 g/ha): 3 (Herbicidal rate of 40% or more and less than 70%)
- herbicidal effect grade, M: velvetleaf (velvetleaf; 295 g/ha): 3 (Herbicidal rate of 40% or more and less than 70%)
- herbicidal effect grade, L: windgrass (windgrass; 295 g/ha): 0 (Herbicidal rate of 5% or less (almost no effect))

Compound: CCCC(=O)Oc1c(C)nn(C)c(=O)c1-c1c(-c2ccc(OC)cc2OC)sc2ccccc12 [1-071]
- herbicidal effect grade, H: barnyard grass (barnyard grass [1]; 320 g/ha): 0 (Herbicidal rate of 5% or less (almost no effect))
- herbicidal effect grade, R: persian speedwell (persian speedwell; 320 g/ha): 1 (Herbicidal rate of 5% or more and less than 20%)
- herbicidal effect on D (Chinese sprangletop), rating 0-5 (Chinese sprangletop; 320 g/ha): 0 (Herbicidal rate of 5% or less (almost no effect))
- herbicidal effect grade, G: green foxtail (green foxtail; 320 g/ha): 0 (Herbicidal rate of 5% or less (almost no effect))
- herbicidal effect grade, Q: false cleavers (false cleavers; 320 g/ha): 0 (Herbicidal rate of 5% or less (almost no effect))
- herbicidal effect grade, O: lambsquarters (lambsquarters; 320 g/ha): 0 (Herbicidal rate of 5% or less (almost no effect))
- herbicidal effect grade, N: redroot pigweed (redroot pigweed; 320 g/ha): 0 (Herbicidal rate of 5% or less (almost no effect))
- herbicidal effect on E (rice flat sedge), rating 0-5 (rice flat sedge; 320 g/ha): 0 (Herbicidal rate of 5% or less (almost no effect))
- herbicidal effect grade, P: chickweed (chickweed; 320 g/ha): 2 (Herbicidal rate of 20% or more and less than 40%)
- herbicidal effect grade, F: southern crabgrass (southern crabgrass; 320 g/ha): 0 (Herbicidal rate of 5% or less (almost no effect))
- herbicidal effect grade, K: Italian ryegrass (Italian ryegrass; 320 g/ha): 0 (Herbicidal rate of 5% or less (almost no effect))
- herbicidal effect grade, I: wild oat (wild oat; 320 g/ha): 0 (Herbicidal rate of 5% or less (almost no effect))
- herbicidal effect grade, J: blackgrass (blackgrass; 320 g/ha): 0 (Herbicidal rate of 5% or less (almost no effect))
- herbicidal effect on H (barnyard grass), rating 0-5 (barnyard grass [2]; 320 g/ha): 2 (Herbicidal rate of 20% or more and less than 40%)
- herbicidal effect grade, M: velvetleaf (velvetleaf; 320 g/ha): 3 (Herbicidal rate of 40% or more and less than 70%)
- herbicidal effect grade, L: windgrass (windgrass; 320 g/ha): 0 (Herbicidal rate of 5% or less (almost no effect))
